From ChEMBL document CHEMBL1134755, “B-ring substituted 5,7-dihydroxyflavonols with high-affinity binding to P-glycoprotein responsible for cell multidrug resistance” (Bioorg Med Chem Lett, 2001)

How the values were obtained:
[1] = molecular target: T1, ATP-dependent translocase ABCB1 (Mus musculus, UniProt P21447); test: Percent of maximal quenching fluorescence for binding analysis to nucleotide-binding domain (NBD2) of P-Glycoprotein was determined
[2] = molecular target: T1, ATP-dependent translocase ABCB1; test: Binding affinity to nucleotide-binding domain (NBD2) of P-Glycoprotein

T1 sequence (P21447 whole entry, the tested form may be a part): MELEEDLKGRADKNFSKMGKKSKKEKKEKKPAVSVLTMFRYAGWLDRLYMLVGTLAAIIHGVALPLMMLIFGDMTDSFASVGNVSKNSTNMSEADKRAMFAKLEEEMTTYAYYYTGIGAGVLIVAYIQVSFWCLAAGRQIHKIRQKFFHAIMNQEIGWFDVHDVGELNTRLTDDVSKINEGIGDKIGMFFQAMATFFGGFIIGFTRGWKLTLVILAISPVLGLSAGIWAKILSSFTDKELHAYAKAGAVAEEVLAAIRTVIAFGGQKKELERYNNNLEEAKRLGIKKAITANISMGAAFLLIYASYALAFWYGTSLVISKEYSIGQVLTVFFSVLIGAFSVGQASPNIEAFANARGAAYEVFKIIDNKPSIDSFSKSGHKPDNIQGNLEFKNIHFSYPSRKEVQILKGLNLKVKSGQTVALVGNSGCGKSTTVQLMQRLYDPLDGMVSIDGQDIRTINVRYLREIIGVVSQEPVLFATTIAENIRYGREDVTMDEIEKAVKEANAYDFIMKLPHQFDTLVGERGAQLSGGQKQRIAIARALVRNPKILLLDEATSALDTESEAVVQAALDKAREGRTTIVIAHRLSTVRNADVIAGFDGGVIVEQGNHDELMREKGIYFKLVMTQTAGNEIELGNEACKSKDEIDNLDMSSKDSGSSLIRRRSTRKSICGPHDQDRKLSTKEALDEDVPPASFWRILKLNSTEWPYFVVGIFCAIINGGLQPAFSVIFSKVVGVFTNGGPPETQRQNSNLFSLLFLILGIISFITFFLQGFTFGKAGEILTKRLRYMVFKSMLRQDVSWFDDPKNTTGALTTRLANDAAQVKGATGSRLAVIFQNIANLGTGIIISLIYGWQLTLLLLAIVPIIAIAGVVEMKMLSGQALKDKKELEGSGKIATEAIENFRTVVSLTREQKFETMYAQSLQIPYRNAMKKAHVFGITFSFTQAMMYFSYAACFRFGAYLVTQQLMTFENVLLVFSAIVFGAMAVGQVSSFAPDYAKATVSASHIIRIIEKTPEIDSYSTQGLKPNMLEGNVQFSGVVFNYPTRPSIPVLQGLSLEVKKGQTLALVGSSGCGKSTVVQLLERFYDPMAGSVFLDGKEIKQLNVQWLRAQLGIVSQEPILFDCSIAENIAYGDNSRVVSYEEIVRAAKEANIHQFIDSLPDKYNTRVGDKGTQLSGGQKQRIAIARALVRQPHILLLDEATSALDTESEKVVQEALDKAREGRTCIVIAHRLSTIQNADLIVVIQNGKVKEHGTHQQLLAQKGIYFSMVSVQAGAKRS

Delta Fmax [1] | Kd [2] | SMILES
96.7% | 5 µM | COc1ccc(-c2oc3cc(O)cc(O)c3c(=O)c2O)cc1 [KAEMPFERIDE]
95.5% | 1.06 µM | O=c1c(O)c(-c2ccc(I)cc2)oc2cc(O)cc(O)c12
85.3% | 4 µM | O=c1c(O)c(-c2ccc(Cl)cc2Cl)oc2cc(O)cc(O)c12
95% | 5.9 µM | O=c1c(O)c(-c2ccccc2)oc2cc(O)cc(O)c12 [GALANGIN]
97.6% | 6.7 µM | O=c1c(O)c(-c2ccc(O)cc2)oc2cc(O)cc(O)c12 [KAEMPFEROL]
62.1% | 0.057 µM | CCCCCCCCc1ccc(-c2oc3cc(O)cc(O)c3c(=O)c2O)cc1
91.6% | 6.8 µM | O=c1c(O)c(-c2ccc(F)cc2)oc2cc(O)cc(O)c12
84.6% | 2 µM | O=c1c(O)c(-c2ccc(C(c3ccccc3)c3ccccc3)cc2)oc2cc(O)cc(O)c12
